Test results: patent US9282743B2, “Chemical compounds” (Syngenta Participations AG, priority 2011, dated 2016)

Key:
[1] = test system: Lolium perenne (LOLPE); experiment: Example B6: post application on weeds, LOLPE; assay type: in vivo; conditions: 312 h, after 13 days, 100 = total damage, 0 = no damage, read-out: LOLPE damage to plant
Description: (§1) Lolium perenne (LOLPE), Alopecurus myosuroides (ALOMY), Echinochloa crus-galli (ECHCG) and Avena fatua (AVEFA). Activity Against Weeds Seeds of a variety of test species were sown in standard soil in pots. After cultivation for 8 days under controlled conditions in a glasshouse (at 24/16° C., day/night; 14 hours light; 65% humidity), the plants were sprayed with an aqueous spray solution derived from the formulation of the technical active ingredient in acetone/water (50:50) solution containing 0.5% Tween 20 (polyoxyethelyene sorbitan monolaurate, CAS RN 9005-64-5). The test plants were then grown in a glasshouse under controlled conditions in a glasshouse (at 24/16° C., day/night; 14 hours light; 65% humidity) and watered twice daily. After 13 days, the test was evaluated (100=total damage to plant; 0=no damage to plant).

[2] = test system: Alopecurus myosuroides (ALOMY); experiment: Example B6: post application on weeds, ALOMY; assay type: in vivo; conditions: 312 h, after 13 days, 100 = total damage, 0 = no damage, read-out: ALOMY damage to plant
Description: as §1

[3] = test system: Echinochloa crus-galli (ECHCG); experiment: Example B6: post application on weeds, ECHCG; assay type: in vivo; conditions: 312 h, after 13 days, 100 = total damage, 0 = no damage, read-out: ECHCG damage to plant
Description: as §1

[4] = test system: Avena fatua (AVEFA); experiment: Example B6: post application on weeds, AVEFA; assay type: in vivo; conditions: 312 h, after 13 days, 100 = total damage, 0 = no damage, read-out: AVEFA damage to plant
Description: as §1

[5] = test system: Lolium perenne (LOLPE); experiment: Example B7: pre application on weeds, LOLPE; assay type: in vivo; conditions: 312 h, pre-emergence spray one day after sowing, evaluated after 13 days, read-out: Pre application on weeds, LOLPE (100=total damage to plant; 0=no damage to plant)
Description: as §1, with “one day” for “8 days”

[6] = test system: Alopecurus myosuroides (ALOMY); experiment: Example B7: pre application on weeds, ALOMY; assay type: in vivo; conditions: 312 h, pre-emergence spray one day after sowing, evaluated after 13 days, read-out: Pre application on weeds, ALOMY (100=total damage to plant; 0=no damage to plant)
Description: as §1, with “one day” for “8 days”

[7] = test system: Echinochloa crus-galli (ECHCG); experiment: Example B7: pre application on weeds, ECHCG; assay type: in vivo; conditions: 312 h, pre-emergence spray one day after sowing, evaluated after 13 days, read-out: Pre application on weeds, ECHCG (100=total damage to plant; 0=no damage to plant)
Description: as §1, with “one day” for “8 days”

[8] = test system: Avena fatua (AVEFA); experiment: Example B7: pre application on weeds, AVEFA; assay type: in vivo; conditions: 312 h, pre-emergence spray one day after sowing, evaluated after 13 days, read-out: Pre application on weeds, AVEFA (100=total damage to plant; 0=no damage to plant)
Description: as §1, with “one day” for “8 days”

[9] = test system: Winter wheat (TRZAW); experiment: Example B8: post application on wheat, with and without safener cloquintocet-mexyl; assay type: in vivo; conditions: after 13 days, 100 = total damage, 0 = no damage
Description: Application with Safener (Cloquintocet-Mexyl) Winter wheat seeds with a seed treatment of cloquintocet-mexyl applied at a rate of 0.5 g/kg seeds were sown in standard soil in pots. After cultivation for 8 days under controlled conditions in a glasshouse (at 24/16° C., day/night; 14 hours light; 65% humidity), the plants were sprayed with an aqueous spray solution derived from the formulation of the technical active ingredient in acetone/water (50:50) solution containing 0.5% Tween 20 (polyoxyethelyene sorbitan monolaurate, CAS RN 9005-64-5). The test plants were then grown in a glasshouse under controlled conditions in a glasshouse (at 24/16° C., day/night; 14 hours light; 65% humidity) and watered twice daily. After 13 days, the test was evaluated (100=total damage to plant; 0=no damage to plant).

[10] = 250 g/ha + 0.5 g/kg seeds cloquintocet-mexyl

Compound	melting point	pest or weed control at 250 g/ha [1] [%]	pest or weed control at 250 g/ha [2] [%]	pest or weed control at 250 g/ha [3] [%]	pest or weed control at 250 g/ha [4] [%]	pest or weed control at 250 g/ha [5] [%]	pest or weed control at 250 g/ha [6] [%]	pest or weed control at 250 g/ha [7] [%]	pest or weed control at 250 g/ha [8] [%]	TRZAW damage to plant ([9]; 62.5 g/ha + 0.5 g/kg seeds cloquintocet-mexyl)	TRZAW damage to plant ([9]; 62.5 g/ha, without safener)	TRZAW damage to plant [9, 10]	TRZAW damage to plant ([9]; 250 g/ha, without safener)
CCOC(=O)Oc1c(-c2c(Cl)cc(C)cc2OC)c(=O)n2n1CCN(OC)CC2 [Compound P1.20]	138 to 139 °C												
CCOC(=O)Oc1c(-c2cc(C)c(C)cc2C)c(=O)n2n1CCN(OC)CC2 [Compound P1.21]	117 to 118 °C												
CCc1cc(C)cc(CC)c1C1C(=O)N2CCN(OC)CCN2C1=O [Compound P2.3, 8-(2,6-Diethyl-4-methyl-phenyl)-3-methoxy-tetrahydro-pyrazolo[1,2-a][1,2,5]triazepine-7,9-dione]	240 °C (dec.)	100	100	100	100	100	100	100	90	0	60		
CON1CCN2C(=O)C(c3cc(-c4ccc(Cl)cc4)ccc3C)C(=O)N2CC1 [Compound P2.7]	248 to 250 °C												
C#Cc1cc(C)c(C2C(=O)N3CCN(OC)CCN3C2=O)c(C)c1 [Compound P2.8]		70	60	60	40	60	80	10	10			10	40
CON1CCN2C(=O)C(c3c(C)cc(Br)cc3C)C(=O)N2CC1 [Compound P2.9]		70	60	60	60	80	80	40	20			20	60
CON1CCN2C(=O)C(c3c(Cl)cc(C)cc3Br)C(=O)N2CC1 [Compound P2.10]		90	80	80	70	100	100	100	60			20	70
CON1CCN2C(=O)C(c3c(C)cc(Cl)cc3Br)C(=O)N2CC1 [Compound P2.11]		70	70	60	60	80	80	70	50			20	50
COc1cc(C)cc(C)c1C1C(=O)N2CCN(OC)CCN2C1=O [Compound P2.12]		80	80	90	80	70	80	60	60			30	70
CON1CCN2C(=O)C(c3cc(C)c(C)cc3C)C(=O)N2CC1 [Compound P2.19]	171 to 173 °C												
CON1CCN2C(=O)C(c3c(C)cc(-c4ccc(Cl)cc4)cc3C)C(=O)N2CC1 [Compound P2.20]	258 to 260 °C												
CON1CCN2C(=O)C(c3c(C)cc(-c4ccc(F)cc4)cc3C)C(=O)N2CC1 [Compound P2.21]	292 to 294 °C												
